# Experimental data from US20160303133A1, “TREATMENT OF GASTROINTESTINAL AND OTHER DISORDERS” (NUMEDII, INC., priority 2013, published 2016).
# Columns and labels:
# [1] = test system: prophylactic TNBS rat colitis model; assay: TNBS dose escalation study, colon histopathology (Example 4); assay type: in vivo, Sprague-Dawley (SD) rats; design: key to colon necrosis: no: 0=No necrosis; very minimal: 0.5=Very minimal, focal, affects <2% of the total colon; minimal: 1.0=Minimal focal or multifocal, affects 2-10% of the total colon; mild: 2.0=Mild, focal or multifocal, affects 11-25% of the total colon; moderate: 3.0=Moderate focal or multifocal, affects 26-50% of the total colon; marked: 4.0=Marked focal or multifocal, affects 51-75% of the total colon; severe: 5.0=Severe affects >75% of the total colon
# Excerpt: Inflammation—neutrophil and macrophage infiltration predominantly, fibroplasia and neovascularization in areas of transmural necrosis 0=No inflammation 0.5=Very minimal focal infiltrates in mucosa only, affects <2% of the total colon 1.0=Minimal multifocal infiltrates in mucosa only, affects 2-10% of the total colon 2.0=Mild multifocal infiltrates affecting mucosa, submucosa, outer muscle layers and serosa, affects 11-25% of the total colon 3.0=Moderate multifocal infiltrates affecting mucosa, submucosa, outer muscle layers and serosa, affects 26-50% of the total colon 4.0=Marked multifocal to diffuse infiltrates affecting mucosa, submucosa, outer muscle layers and serosa, affects 51-75% of the total colon 5.0=Severe multifocal to diffuse infiltrates affecting mucosa, submucosa, outer muscle layers and serosa, affects >75% of the total colon. Necrosis—measure the total length of all colon sections, measure the total length of necrotic mucosa devoid of epithelium to determine % area affected 0=No necrosis 0.5=Very minimal, focal, affects <2% of the total colon 1.0=Minimal focal or multifocal, affects 2-10% of the total colon 2.0=Mild, focal or multifocal, affects 11-25% of the total colon 3.0=Moderate focal or multifocal, affects 26-50% of the total colon 4.0=Marked focal or multifocal, affects 51-75% of the total colon 5.0=Severe, affects >75% of the total colon Sprague-Dawley (SD) rats 118 (male, 180-200 g) were assigned to 11 groups of 10 or 12 rats per group so that each group has approximately the same mean weight. (Day −1) Initiate daily dosing of Groups 1-11 as in TABLE 1. Rats are deprived of food for 24 hours prior to disease initiation. 1) Intra-rectal (IR) administration is accomplished by briefly anesthetizing the rats, administering the test material at 10 ml/kg via a 20 gauge feeding needle inserted via the rectum, maintaining the rat in an inverted position with anus pinched shut until recovered from anesthesia. 2) Oral formulations are first dissolved in 0.05N acetic acid and pH adjusted to 6-7 with 0.1N NaOH. [table] (DAY 0) Prepare TNBS Solution (50% TNBS: 50% 200 proof ethanol; 16 mg/ml TNBS). Dose as in TABLE 3. After 1 hour, rats in Groups 2-11 are administered TNBS. Anesthetize rats and administer 64 mg/kg (4 ml/kg) TNBS Solution into colon of each rat, then re-feed rats. (DAY 7): Rats are weighed and dosed as in Table 3. […]. Terminal blood samples are collected from anesthetized rats. Samples are collected in pre-chilled-tubes and processed to serum. Store serum at −80° C. in several aliquots. A midline incision is made on each animal. Colon is removed and length measured and recorded. A longitudinal incision is made on each colon. Fecal material is gently washed away with saline. Excess fluid is gently blotted and colon weighed. The severity of IBD is assessed using the following scoring system: maximum score=10 • 1) Adhesions: • none=0 • minimal=1 • involving several bowel loops=2 • 2) Strictures: • none=0 • mild=1 • moderate=2 • severe, proximal dilatation=3 • 3) Ulcers: • none=0 • inear ulceration <1 cm=1 • two linear ulcers <1 cm=2 • more sites of ulceration or one large ulcer=3 • 4) Wall thickness: • less than 1 mm=0 • 1-3 mm=1 • >3 mm=2 A section of colon is preserved in 10 volumes of 10% neutral buffered formalin for histopathology. A section of colon is homogenized in PBS, centrifuged, and aliquots of the homogenate in labeled Eppendorf tubes are stored at −80° C. for cytokine analysis.
# [2] = test system: TNBS (2,4,6-trinitrobenzenesulfonic acid) rat colitis model; assay: Prophylactic efficacy study in TNBS rat colitis model, colon histopathology (Example 3); assay type: in vivo, Sprague-Dawley rats
# Method: Prophylactic efficacy study in TNBS (2,4,6-trinitrobenzenesulfonic acid) rat colitis model.
# Preparation of doses: For Groups 1, 2: 50 ml 0.1M acetic acid and 30 ml sterile water were combined. The pH was adjusted from 4.45 to 6.7 with 0.1N NaOH. The stir bar was removed and the solution made up to 100 ml with sterile water. For Group 3, 133.9 mg prednisolone 21-hemisuccinate sodium salt was dissolved in 100 ml de-ionized water to prepare a 1 mg/ml solution. For Group 4, 600 mg Nadolol was dissolved in 50 ml 0.1M acetic acid and 30 ml sterile water. The pH was adjusted from 4.45 to 6.7 with 0.1N NaOH, and the solution made up to 100 ml with sterile water. For Group 5, 1.2 g Nadolol was dissolved in 50 ml 0.1M acetic acid and 30 ml sterile water. The pH was adjusted from 4.45 to 6.7 with 0.1N NaOH and the solution made up to 100 ml with sterile water. For Group 6: 1 g cellulose gum was dissolved in 50 ml 0.1N acetic acid and 30 ml de-ionized water. The volume was made up to 100 ml with sterile water. For Group 7, 600 mg Nadolol was dissolved in 50 ml 0.1M acetic acid and 30 ml sterile water. 1 g cellulose gum was added and dissolved into the solution and the solution made up to 100 ml with sterile water. For Group 8, 1.2 g Nadolol was dissolved in 50 ml 0.1M acetic acid and 30 ml sterile water. 1 g cellulose gum was added and dissolved into the solution and the solution made up to 100 ml with sterile water.
# (Day −1) 84 Sprague-Dawley rats (male, 160-180 g each) were sorted into treatment groups based upon average body weight. The rats were weighed and food-deprived. The rats in groups 1-5 were dosed orally (PO) at 10 ml/kg with their respective solutions according to Table 2. The rats in Groups 6-8 were anesthetized intra-rectally (IR) instilled with 10 ml/kg of their respective treatment according to Table 2, the anus was pinched closed and the rat held inverted until recovered from anesthesia (at least 1 min).
# After 24 hours (day 0), an aqueous solution of TNBS (2,4,6-trinitrobenzenesulfonic acid) 16 mg/ml in 50% ethanol was made and the rats were weighed and dosed as in TABLE 2. One hour later, the rats anesthetized and Groups 2-8 were intra-rectally instilled with 4 ml/kg TNBS solution (64 mg/kg), the anus was pinched closed and the rat held inverted until recovered from anesthesia (at least 1 min). Group 1 received de-ionized water. The rats were re-fed after recovery from TNBS instillation.
# The rats were weighed and dosed as in TABLE 2 each day for the next six days (day 2-7), The rats were anesthetized and exsanguinated into pre-chilled serum separator tubes, the blood processed to serum which was stored in several aliquots at −80° C. A midline incision was made in the abdomen and the colon was evaluated for adhesions and stricture. The colon was removed and the length recorded. A midline incision was made the entire length of the colon, the contents removed and the colon weight and colon wall thickness recorded. A section of the colon was preserved in 20 volumes of 10% neutral buffered formalin. The end of the colon section at the rectal end of the section was edged with Evans Blue dye for orientation purposes. Another section of the colon was weighed and homogenized on an ice batch in 5 ml PBS. The homogenate was centrifuged and aliquots stored in labeled Eppendorf tubes at −80° C. The following parameters were used to determine colonic score: • Colonic Score Parameters • a) Adhesions: • 1) none=0 • 2) minimal=1 • 3) involving several bowel loops=2 • b) Strictures: • 1) none=0 • 2) mild=1 • 3) moderate=2 • 4) severe, proximal dilatation=3 • c) Ulcers: • 1) none=0 • 2) linear ulceration <1 cm=1 • 3) two linear ulcers <1 cm=2 • 4) more sites of ulceration or one large ulcer=3 • d) Wall thickness: • 1) less than 1 mm=0 • 2) 1-3 mm=1 • 3) >3 mm=2
# The formalin-preserved colon samples were submitted for histological preparation and evaluation. […]
# [3] = 60 mpk, FIG. 5c (route not given, IR by group order of Table 2)
# [4] = 60 mpk, FIG. 4d (route not given, PO by group order of Table 2)
# [5] = 120 mpk, FIG. 5a (route not given, PO by group order of Table 2)
# [6] = 120 mpk, FIG. 5d (route not given, IR by group order of Table 2)
# [7] = 10 mpk, FIG. 4c, animal with approximate mean summed score for the group
compound,measurement,setting,value
CC(C)(C)NCC(O)COc1cccc2c1CC(O)C(O)C2 (centres unmarked) [nadolol],colon inflammation,"[1]; IR 6 mpk, FIG. 12i","mild (2.0=Mild multifocal infiltrates affecting mucosa, submucosa, outer muscle layers and serosa, affects 11-25% of the total colon)"
same,colon necrosis,"[1]; IR 6 mpk, FIG. 12i",no
same,colon inflammation,"[1]; IR 19 mpk, FIG. 12j","moderate (3.0=Moderate multifocal infiltrates affecting mucosa, submucosa, outer muscle layers and serosa, affects 26-50% of the total colon)"
same,colon necrosis,"[1]; IR 19 mpk, FIG. 12j","mild (2.0=Mild, focal or multifocal, affects 11-25% of the total colon)"
same,colon inflammation,"[1]; IR 60 mpk, FIG. 12k","severe (5.0=Severe multifocal to diffuse infiltrates affecting mucosa, submucosa, outer muscle layers and serosa, affects >75% of the total colon)"
same,colon necrosis,"[1]; IR 60 mpk, FIG. 12k",severe (5.0=Severe affects >75% of the total colon)
same,colon inflammation,"[1]; PO 6 mpk, FIG. 12d","mild (2.0=Mild multifocal infiltrates affecting mucosa, submucosa, outer muscle layers and serosa, affects 11-25% of the total colon)"
same,colon necrosis,"[1]; PO 6 mpk, FIG. 12d",severe (5.0=Severe affects >75% of the total colon)
same,colon inflammation,"[1]; PO 19 mpk, FIG. 12e","marked (4.0=Marked multifocal to diffuse infiltrates affecting mucosa, submucosa, outer muscle layers and serosa, affects 51-75% of the total colon)"
same,colon necrosis,"[1]; PO 19 mpk, FIG. 12e","marked (4.0=Marked focal or multifocal, affects 51-75% of the total colon)"
same,colon inflammation,"[1]; PO 60 mpk, FIG. 12f","severe (5.0=Severe multifocal to diffuse infiltrates affecting mucosa, submucosa, outer muscle layers and serosa, affects >75% of the total colon)"
same,colon necrosis,"[1]; PO 60 mpk, FIG. 12f",severe (5.0=Severe affects >75% of the total colon)
same,colon inflammation,"[1]; PO 120 mpk, FIG. 12g","mild (2.0=Mild multifocal infiltrates affecting mucosa, submucosa, outer muscle layers and serosa, affects 11-25% of the total colon)"
same,colon necrosis,"[1]; PO 120 mpk, FIG. 12g",no
same,colon inflammation,[2]; [3],"moderate (3.0=Moderate multifocal infiltrates affecting mucosa, submucosa, outer muscle layers and serosa, affects 26-50% of the total colon)"
same,colon necrosis,[2]; [3],"moderate (3.0=Moderate focal or multifocal, affects 26-50% of the total colon)"
same,colon inflammation,[2]; [4],"moderate (3.0=Moderate multifocal infiltrates affecting mucosa, submucosa, outer muscle layers and serosa, affects 26-50% of the total colon)"
same,colon necrosis,[2]; [4],"moderate (3.0=Moderate focal or multifocal, affects 26-50% of the total colon)"
same,colon inflammation,[2]; [5],"moderate (3.0=Moderate multifocal infiltrates affecting mucosa, submucosa, outer muscle layers and serosa, affects 26-50% of the total colon)"
same,colon necrosis,[2]; [5],"mild (2.0=Mild, focal or multifocal, affects 11-25% of the total colon)"
same,colon inflammation,[2]; [6],"mild (2.0=Mild multifocal infiltrates affecting mucosa, submucosa, outer muscle layers and serosa, affects 11-25% of the total colon)"
same,colon necrosis,[2]; [6],"mild (2.0=Mild, focal or multifocal, affects 11-25% of the total colon)"
C[C@]12C=CC(=O)C=C1CC[C@@H]1[C@@H]2[C@@H](O)C[C@@]2(C)[C@H]1CC[C@]2(O)C(=O)CO [prednisolone],colon inflammation,"[1]; PO 10 mpk, FIG. 12c","minimal (1.0=Minimal multifocal infiltrates in mucosa only, affects 2-10% of the total colon)"
same,colon necrosis,"[1]; PO 10 mpk, FIG. 12c","minimal (1.0=Minimal focal or multifocal, affects 2-10% of the total colon)"
same,colon inflammation,[2]; [7],"minimal (1.0=Minimal multifocal infiltrates in mucosa only, affects 2-10% of the total colon)"
same,colon necrosis,[2]; [7],"very minimal (0.5=Very minimal, focal, affects <2% of the total colon)"
